According to patent US9937165B2, “Pharmacological chaperones for treating obesity” (Amicus Therapeutics, Inc., priority 2005, dated 2018):
Square brackets hold non-standard residues; d marks the D form. d2Nal = N[C@H](Cc1ccc2ccccc2c1)C(=O)O; Nle = CCCC[C@H](N)C(=O)O

Assays:
hMC4R mutant R165W = molecular target: T1, hMC4R mutant R165W (Homo sapiens, UniProt P32245, R165W); test: Pharmacological chaperone assay, cell surface expression by FACS, mutant R165W; type: cell-based
T1 construct: expressed in transfected cells; host or cells: HEK 293 cells, transient transfection
T1 sequence (P32245 whole entry R165W): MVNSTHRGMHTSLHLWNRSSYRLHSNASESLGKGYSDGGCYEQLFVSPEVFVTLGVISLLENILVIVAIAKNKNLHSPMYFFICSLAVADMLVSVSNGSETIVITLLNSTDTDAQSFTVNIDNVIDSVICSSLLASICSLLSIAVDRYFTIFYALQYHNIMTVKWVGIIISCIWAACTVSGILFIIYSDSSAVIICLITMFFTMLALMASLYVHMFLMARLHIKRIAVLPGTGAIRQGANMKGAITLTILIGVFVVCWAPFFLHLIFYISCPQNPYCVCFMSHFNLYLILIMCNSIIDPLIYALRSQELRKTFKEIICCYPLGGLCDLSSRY
Protocol: (§1) HEK 293 cells were transiently transfected with wild-type (WT) or the following hMC4R mutants double tagged with 3HA and Venus (Enhanced Yellow Green Fluorescent Protein; EYFP): S58C; N62S; R165W; R165Q, and P299H.
(§2) FACS analysis was performed after fluorescently labeling cells with primary anti-HA.11 antibody (mouse; 1:1000 dilution) and the secondary antibody coupled to Alexa 647 (goat anti-mouse; 1:1000 dilution) dilution. Live cells (propidium iodide negative) were sorted into the following two relevant populations: • P4: Total YFP positive cells (representative of total MC4R expression) • P5: Percent of cells positive for both YFP and Alexa 647 (Alexa and YFP positive cells)/(YFP positive cells+Alexa and YFP positive cells) (representative of cell surface expression)
(§3) Briefly, cells harboring each of the above-referenced MC4R mutants (transfected as described in Example 3) were cultured with each of the antagonist compounds at concentrations of 1.0 μM and 10 μM for 12 h and evaluated for cell surface expression of MC4R using fluorescent activated cell sorting analysis as described above. Cell surface expression levels are compared between treatment and basal conditions. Percent Gain is determined according to the following: [Gain=[(% of surface expression (with treatment)−% of surface expression (w/o treatment))/% of surface expression (w/o treatment)]*100.

hMC4R mutant S58C = molecular target: T2, hMC4R mutant S58C (Homo sapiens, UniProt P32245, S58C); test: Pharmacological chaperone assay, cell surface expression by FACS, mutant S58C; type: cell-based
T2 construct: expressed in transfected cells; host or cells: HEK 293 cells, transient transfection
T2 sequence (P32245 whole entry S58C): as the sequence (P32245 whole entry R165W) above, with S58C, W165R counted along it
Protocol: as §1, §2, §3

[1] = system: WT and mutant hMC4R (S58C; N62S; R165W; R165Q; P299H) in HEK 293 cells; test: Chemical chaperone assay, MC4R cell surface expression by FACS; type: cell-based, human; settings: 1% DMSO, 12 hours
Protocol: as §1
WT and transiently transfected cells were incubated in the presence or absence of 1% DMSO for 12 hours prior to evaluation of MC4R cells surface expression.
as §2

hMC4R mutant P299H = molecular target: T3, hMC4R mutant P299H (Homo sapiens, UniProt P32245, P299H); test: Pharmacological chaperone assay, cell surface expression by FACS, mutant P299H; type: cell-based; settings: 12 h
T3 construct: expressed in transfected cells; host or cells: HEK 293 cells, transient transfection
T3 sequence (P32245 whole entry P299H): as the sequence (P32245 whole entry R165W) above, with W165R, P299H counted along it
Protocol: as §1, §2, §3

hMC4R mutant R165Q = molecular target: T4, hMC4R mutant R165Q (Homo sapiens, UniProt P32245, R165Q); test: Pharmacological chaperone assay, cell surface expression by FACS, mutant R165Q; type: cell-based; settings: 12 h
T4 construct: expressed in transfected cells; host or cells: HEK 293 cells, transient transfection
T4 sequence (P32245 whole entry R165Q): as the sequence (P32245 whole entry R165W) above, with W165Q counted along it
Protocol: as §1, §2, §3

hMC4R mutant N62S = molecular target: T5, hMC4R mutant N62S (Homo sapiens, UniProt P32245, N62S); test: Pharmacological chaperone assay, cell surface expression by FACS, mutant N62S; type: cell-based; settings: 12 h
T5 construct: expressed in transfected cells; host or cells: HEK 293 cells, transient transfection
T5 sequence (P32245 whole entry N62S): as the sequence (P32245 whole entry R165W) above, with N62S, W165R counted along it
Protocol: as §1, §2, §3

[2] = molecular target: MC4R as compared to the MC5R (Homo sapiens, UniProt P32245); settings: cited from earlier work
Sequence of MC4R as compared to the MC5R (P32245 whole entry): as the sequence (P32245 whole entry R165W) above, with W165R counted along it

[3] = molecular target: MC4R as compared to the MC3R (Homo sapiens, UniProt P32245); settings: cited from earlier work
Sequence of MC4R as compared to the MC3R (P32245 whole entry): as the sequence (P32245 whole entry R165W) above, with W165R counted along it

[4] = in vivo; cited from earlier work

Compound: COc1ccc(Cl)cc1Nc1nc(-c2sc(NC(=O)c3ccccc3)nc2C)cs1 [Compound 5]
- % Gain in cell surface expression (hMC4R mutant R165W; concentration not given): 28.95%
- % Gain in cell surface expression (hMC4R mutant S58C; concentration not given): 31.25%

Compound: C[S+](C)[O-] [DMSO]
- enhancement of MC4R cell surface expression [1]: No significant enhancement

Compound: Br.COc1ccc([N+](=O)[O-])cc1CSc1ccccc1C1=NCCCN1 [Compound 4]
- % Gain in cell surface expression (hMC4R mutant P299H; 1 μM): 11.11%
- % Gain in cell surface expression (hMC4R mutant P299H; 1 μM, listed as compound shown in FIG. 6): no effect
- % Gain in cell surface expression (hMC4R mutant P299H; 10 μM): 38.9%
- % Gain in cell surface expression (hMC4R mutant P299H; 10 μM, listed as compound shown in FIG. 6): no effect
- % Gain in cell surface expression (hMC4R mutant R165W; 1 μM, 12 h): 150%
- % Gain in cell surface expression (hMC4R mutant R165W; 10 μM, 12 h): 675%
- % Gain in cell surface expression (hMC4R mutant S58C; 1 μM, 12 h): 60%
- % Gain in cell surface expression (hMC4R mutant S58C; 10 μM, 12 h): 130%
- % Gain in cell surface expression (hMC4R mutant R165Q; 1 μM): 91.7%
- % Gain in cell surface expression (hMC4R mutant R165Q; 10 μM): 508%
- % Gain in cell surface expression (hMC4R mutant N62S; 1 μM): 6.25%
- % Gain in cell surface expression (hMC4R mutant N62S; 10 μM): 212.5%

Compound: Ac-Nle-Gly-Lys-D-Nal(2)-Arg-Trp-Gly-NH(2) (Ac-[Nle]GK[d2Nal]RWG-NH2; SMILES CCCC[C@H](NC(C)=O)C(=O)NCC(=O)N[C@@H](CCCCN)C(=O)N[C@H](Cc1ccc2ccccc2c1)C(=O)N[C@@H](CCCNC(=N)N)C(=O)N[C@@H](Cc1c[nH]c2ccccc12)C(=O)NCC(N)=O)
- selectivity for the MC4R as compared to the MC5R [2]: 109 fold
- selectivity for the MC4R as compared to the MC3R [3]: 34 fold

Compound: CC(CN1CCN(CC(c2ccc(F)cc2)N2CCN(C)CC2)CC1)C(=O)c1ccccc1 (stereo not drawn) [Compound 3]
- % Gain in cell surface expression (hMC4R mutant P299H; 1 μM): 27.78%
- % Gain in cell surface expression (hMC4R mutant P299H; 10 μM): 77.78%
- % Gain in cell surface expression (hMC4R mutant P299H; 10 μM, listed as compound shown in FIG. 5): only a small effect
- % Gain in cell surface expression (hMC4R mutant R165W; 1 μM, 12 h): 467%
- % Gain in cell surface expression (hMC4R mutant R165W; 10 μM, 12 h): 675%
- % Gain in cell surface expression (hMC4R mutant S58C; 1 μM, 12 h): 77.5%
- % Gain in cell surface expression (hMC4R mutant S58C; 10 μM, 12 h): 130%
- % Gain in cell surface expression (hMC4R mutant R165Q; 1 μM): 300%
- % Gain in cell surface expression (hMC4R mutant R165Q; 10 μM): 508%
- % Gain in cell surface expression (hMC4R mutant N62S; 1 μM): 25%
- % Gain in cell surface expression (hMC4R mutant N62S; 10 μM): 343.75%
- % Gain in cell surface expression (hMC4R mutant N62S; 10 μM, listed as compound depicted in FIG. 5): more potent

Compound: O=C(N[C@H](Cc1ccc(Cl)cc1)C(=O)N1CCC(Cn2cncn2)(C2CCCCC2)CC1)[C@H]1Cc2ccccc2CN1 [Compound 1, THIQ]
- PK %F [4]: %F 14
- PK Cl [4]: Cl 84 mLmin/kg
- PK Vd [4]: Vd 3.6 L/kg
- PK t½ [4]: t½ 0.6 h
